From PMC6397177, “An uncharacterized FMAG_01619 protein from Fusobacterium mortiferum ATCC 9817 demonstrates that some bacterial macrodomains can also act as poly-ADP-ribosylhydrolases” (Scientific Reports, 2019) come the findings set out here.

The target in test [1] is T1, FmTARG1 (Fusobacterium mortiferum, UniProt A0ABN5JAQ3).
T1 construct: gene C4N19_10685; synthetic gene in pSol-AFV, AFV-tag removed with TEV protease; expressed in E. coli 10G
T1 sequence (A0ABN5JAQ3 2-142 limits assumed): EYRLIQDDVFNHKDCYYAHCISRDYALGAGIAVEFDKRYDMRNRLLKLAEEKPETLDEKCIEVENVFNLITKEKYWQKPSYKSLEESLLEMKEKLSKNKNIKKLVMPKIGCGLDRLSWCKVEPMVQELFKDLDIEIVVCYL
Briefly: thermal shift assay, SYPRO Orange. It is filed as binding. Particulars: 100 mM phosphate pH 7.0; ligand up to 50 mM.

For the next test, the target named is T2, hTARG1 (Homo sapiens, UniProt Q9Y530).
T2 construct: gene OARD1; synthetic gene in pET28a; E. coli Rosetta2(DE3); tag removal not clearly told
T2 sequence (Q9Y530 2-152): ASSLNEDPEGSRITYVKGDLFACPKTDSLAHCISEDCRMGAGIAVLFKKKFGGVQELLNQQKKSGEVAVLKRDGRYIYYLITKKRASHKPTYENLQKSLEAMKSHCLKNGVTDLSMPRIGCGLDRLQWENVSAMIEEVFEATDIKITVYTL
The test is described as follows: thermal shift assay, SYPRO Orange. It is filed as binding. Particulars: 100 mM phosphate pH 7.0; ligand up to 50 mM.

The target in test [2] is T1, FmTARG1. The test is described as follows: HPLC deacetylation assay. It is filed as biochemical. Particulars: competitive against OAADPr; Bis-Tris pH 7.3, 300 mM NaCl, 25 °C.

Each structure is given as a SMILES string.

Regarding `Nc1ncnc2c1ncn2[C@@H]1O[C@H](COP(=O)(O)OP(=O)(O)O)[C@@H](O)[C@H]1O` [ADP], the dTm result at FmTARG1 [1] was “AMP and ADP, also bind to both enzymes in a dose-dependent manner”; on hTARG1, “AMP and ADP, also bind to both enzymes in a dose-dependent manner”.
As for `Nc1ncnc2c1ncn2[C@@H]1O[C@H](COP(=O)(O)OP(=O)(O)OC[C@H]2OC(O)[C@H](O)[C@@H]2O)[C@@H](O)[C@H]1O` (some centres unmarked) [ADPr], at FmTARG1 [2], the Ki came out at 203 ± 10 µM.
As to `Nc1ncnc2c1ncn2[C@@H]1O[C@H](COP(=O)(O)O)[C@@H](O)[C@H]1O` [AMP], the dTm entry at FmTARG1 [1] is “AMP and ADP, also bind to both enzymes in a dose-dependent manner”; on hTARG1, “AMP and ADP, also bind to both enzymes in a dose-dependent manner”.
